Test results as given in ChEMBL document CHEMBL5678816, “A Next-Generation TRK Kinase Inhibitor Overcomes Acquired Resistance to Prior TRK Kinase Inhibition in Patients with TRK Fusion-Positive Solid Tumors” (Cancer Discov, 2017).
The source made the active and inactive calls. The calls are words filed in the database; no cut-off is given here.

Tests used:
MG-63 = experiment: Inhibition of cell proliferation in human MG-63 cells upto 10 umol/L incubated for 72 hrs by DAPI staining based analysis; format: functional; settings: dose <= 10.0 µmol/L
MDA-MB-453 = experiment: Inhibition of cell proliferation in human MDA-MB-453 cells upto 10 umol/L incubated for 72 hrs by DAPI staining based analysis; format: functional; settings: dose <= 10.0 µmol/L
[1] = AUC in pediatric patient with recurrent ETV6-NTRK3-rearranged infantile fibrosarcoma at 100 mg administered twice a day as liquid formulation for 29 day by LC-MS/MS analysis; format: ADME; settings: human, in vivo
UMUC3 = experiment: Inhibition of cell proliferation in human UMUC3 cells upto 10 umol/L incubated for 72 hrs by DAPI staining based analysis; format: functional; settings: dose <= 10.0 µmol/L
SCC-25 = experiment: Inhibition of cell proliferation in human SCC-25 cells upto 10 umol/L incubated for 72 hrs by DAPI staining based analysis; format: functional; settings: dose <= 10.0 µmol/L
TPC1 = experiment: Inhibition of cell proliferation in human TPC1 cells upto 10 umol/L incubated for 72 hrs by DAPI staining based analysis; format: functional; settings: dose <= 10.0 µmol/L
[2] = molecular target: Serine/threonine-protein kinase Sgk1 (Homo sapiens) (UniProt O00141); experiment: Inhibition of SGK1 (unknown origin) at 1 uM in presence of ATP relative to control; values are per cent of control
CML-T1 = experiment: Inhibition of cell proliferation in human CML-T1 cells upto 10 umol/L incubated for 72 hrs by DAPI staining based analysis; format: functional; settings: dose <= 10.0 µmol/L
[3] = molecular target: Serine/threonine-protein kinase N2 (Homo sapiens) (UniProt Q16513); experiment: Inhibition of PRK2 (unknown origin) at 1 uM in presence of ATP relative to control; values are per cent of control
[4] = AUC in adult patient with recurrent LMNA-NTRK1 rearranged colorectal cancer at 50 mg administered twice a day as powder-in-capsule or liquid formulation for 1 day by LC-MS/MS analysis; format: ADME; settings: human, in vivo, po
LC2 = experiment: Inhibition of cell proliferation in human LC2 cells upto 10 umol/L incubated for 72 hrs by DAPI staining based analysis; format: functional; settings: dose <= 10.0 µmol/L
[5] = molecular target: Cyclin-dependent kinase 5/CDK5 activator 1 (Homo sapiens) (UniProt Q00535+Q15078); experiment: Inhibition of CDK5/p35 (unknown origin) at 1 uM in presence of ATP relative to control; values are per cent of control
[6] = molecular target: Calcium/calmodulin-dependent protein kinase type II subunit gamma (Homo sapiens) (UniProt Q13555); experiment: Inhibition of CAMK2g (unknown origin) at 1 uM in presence of ATP relative to control; values are per cent of control
[7] = molecular target: SRSF protein kinase 2 (Homo sapiens) (UniProt P78362); experiment: Inhibition of SRPK2 (unknown origin) at 1 uM in presence of ATP relative to control; values are per cent of control
NCI-H661 = experiment: Inhibition of cell proliferation in human NCI-H661 cells upto 10 umol/L incubated for 72 hrs by DAPI staining based analysis; format: functional; settings: dose <= 10.0 µmol/L
DMS-114 = experiment: Inhibition of cell proliferation in human DMS-114 cells upto 10 umol/L incubated for 72 hrs by DAPI staining based analysis; format: functional; settings: dose <= 10.0 µmol/L
[8] = molecular target: CDK9/cyclin T1 (Homo sapiens) (UniProt O60563+P50750); experiment: Inhibition of CDK9/cyclinT1 (unknown origin) at 1 uM in presence of ATP relative to control; values are per cent of control
[9] = molecular target: Fibroblast growth factor receptor 1 (Homo sapiens) (UniProt P11362); experiment: Inhibition of FGFR1 (unknown origin) at 1 uM in presence of ATP relative to control; values are per cent of control
[10] = molecular target: Ribosomal protein S6 kinase alpha-2 (Homo sapiens) (UniProt Q15349); experiment: Inhibition of Rsk3 (unknown origin) at 1 uM in presence of ATP relative to control; values are per cent of control
[11] = molecular target: SRSF protein kinase 1 (Homo sapiens) (UniProt Q96SB4); experiment: Inhibition of SRPK1 (unknown origin) at 1 uM in presence of ATP relative to control; values are per cent of control
[12] = molecular target: RAF proto-oncogene serine/threonine-protein kinase (Homo sapiens) (UniProt P04049); experiment: Inhibition of C-RAF (unknown origin) at 1 uM in presence of ATP relative to control; values are per cent of control
[13] = molecular target: Serine/threonine-protein kinase NLK (Homo sapiens) (UniProt Q9UBE8); experiment: Inhibition of NLK (unknown origin) at 1 uM in presence of ATP relative to control; values are per cent of control
[14] = molecular target: Rho-associated protein kinase 1 (Homo sapiens) (UniProt Q13464); experiment: Inhibition of ROCK-I (unknown origin) at 1 uM in presence of ATP relative to control; values are per cent of control
[15] = molecular target: MAP kinase-interacting serine/threonine-protein kinase 2 (Homo sapiens) (UniProt Q9HBH9); experiment: Inhibition of MKNK2 (unknown origin) at 1 uM in presence of ATP relative to control; values are per cent of control
FaDu = experiment: Inhibition of cell proliferation in human FaDu cells upto 10 umol/L incubated for 72 hrs by DAPI staining based analysis; format: functional; settings: dose <= 10.0 µmol/L
SAOS-2 = experiment: Inhibition of cell proliferation in human SAOS-2 cells upto 10 umol/L incubated for 72 hrs by DAPI staining based analysis; format: functional; settings: dose <= 10.0 µmol/L
[16] = molecular target: Protein kinase C eta type (Homo sapiens) (UniProt P24723); experiment: Inhibition of PKCeta (unknown origin) at 1 uM in presence of ATP relative to control; values are per cent of control
[17] = molecular target: Serine/threonine-protein kinase 24 (Homo sapiens) (UniProt Q9Y6E0); experiment: Inhibition of MST3 (unknown origin) at 1 uM in presence of ATP relative to control; values are per cent of control
MZ-CRC-1 = experiment: Inhibition of cell proliferation in human MZ-CRC-1 cells upto 10 umol/L incubated for 72 hrs by DAPI staining based analysis; format: functional; settings: dose <= 10.0 µmol/L
TF-1 = experiment: Inhibition of cell proliferation in human TF-1 cells upto 10 umol/L incubated for 72 hrs by DAPI staining based analysis; format: functional; settings: dose <= 10.0 µmol/L
[18] = molecular target: Serine/threonine-protein kinase TAO1 (Homo sapiens) (UniProt Q7L7X3); experiment: Inhibition of TAO1 (unknown origin) at 1 uM in presence of ATP relative to control; values are per cent of control
Chain of Serine/threonine-protein kinase TAO1 (Homo sapiens) (Q7L7X3 whole entry): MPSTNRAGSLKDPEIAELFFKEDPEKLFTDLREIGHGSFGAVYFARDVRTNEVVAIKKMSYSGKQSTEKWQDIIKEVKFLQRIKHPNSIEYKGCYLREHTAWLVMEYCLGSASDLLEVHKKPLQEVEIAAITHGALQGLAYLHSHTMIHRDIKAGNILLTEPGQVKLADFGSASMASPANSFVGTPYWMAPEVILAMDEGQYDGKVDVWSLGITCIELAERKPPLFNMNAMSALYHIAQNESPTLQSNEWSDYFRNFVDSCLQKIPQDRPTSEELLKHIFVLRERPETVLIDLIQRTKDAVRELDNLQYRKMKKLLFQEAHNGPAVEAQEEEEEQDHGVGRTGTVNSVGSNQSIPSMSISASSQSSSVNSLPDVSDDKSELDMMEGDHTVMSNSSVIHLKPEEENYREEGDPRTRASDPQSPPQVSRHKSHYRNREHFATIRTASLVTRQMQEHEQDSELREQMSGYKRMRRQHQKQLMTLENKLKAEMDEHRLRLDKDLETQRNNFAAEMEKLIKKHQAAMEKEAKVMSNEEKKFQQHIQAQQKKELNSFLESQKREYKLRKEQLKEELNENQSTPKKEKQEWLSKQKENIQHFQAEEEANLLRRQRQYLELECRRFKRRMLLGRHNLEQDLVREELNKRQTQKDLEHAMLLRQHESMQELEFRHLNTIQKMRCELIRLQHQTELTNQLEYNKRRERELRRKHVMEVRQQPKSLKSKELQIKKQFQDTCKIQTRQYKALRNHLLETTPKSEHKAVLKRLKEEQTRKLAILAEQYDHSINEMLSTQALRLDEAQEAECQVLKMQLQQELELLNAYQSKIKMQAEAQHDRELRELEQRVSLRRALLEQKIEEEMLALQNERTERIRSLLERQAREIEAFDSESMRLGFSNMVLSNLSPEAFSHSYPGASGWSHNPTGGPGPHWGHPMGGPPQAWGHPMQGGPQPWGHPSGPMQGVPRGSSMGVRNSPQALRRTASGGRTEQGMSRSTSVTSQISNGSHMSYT

Chain of Fibroblast growth factor receptor 1 (Homo sapiens) (P11362 22-822 limits assumed): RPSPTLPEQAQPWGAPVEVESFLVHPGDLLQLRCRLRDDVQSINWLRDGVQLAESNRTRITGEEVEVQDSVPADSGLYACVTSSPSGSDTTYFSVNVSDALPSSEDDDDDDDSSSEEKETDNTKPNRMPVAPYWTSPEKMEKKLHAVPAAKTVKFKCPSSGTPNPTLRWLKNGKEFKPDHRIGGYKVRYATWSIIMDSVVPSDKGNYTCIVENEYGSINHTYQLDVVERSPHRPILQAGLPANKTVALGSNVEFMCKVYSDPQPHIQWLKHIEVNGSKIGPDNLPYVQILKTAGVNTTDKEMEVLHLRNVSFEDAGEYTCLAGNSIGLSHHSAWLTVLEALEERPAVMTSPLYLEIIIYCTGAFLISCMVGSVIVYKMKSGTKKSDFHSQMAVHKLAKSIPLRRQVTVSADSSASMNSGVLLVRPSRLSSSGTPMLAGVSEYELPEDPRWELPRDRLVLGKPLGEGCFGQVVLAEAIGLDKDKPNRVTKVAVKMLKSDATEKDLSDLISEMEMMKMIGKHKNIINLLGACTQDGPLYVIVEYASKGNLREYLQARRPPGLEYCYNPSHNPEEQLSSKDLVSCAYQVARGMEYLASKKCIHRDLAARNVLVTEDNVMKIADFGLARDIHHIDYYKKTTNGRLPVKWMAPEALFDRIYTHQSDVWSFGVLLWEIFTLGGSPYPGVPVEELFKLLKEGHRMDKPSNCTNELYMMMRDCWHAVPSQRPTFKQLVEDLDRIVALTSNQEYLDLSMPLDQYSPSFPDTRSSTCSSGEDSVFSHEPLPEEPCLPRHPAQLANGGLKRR
Chain of SRSF protein kinase 1 (Homo sapiens) (Q96SB4 whole entry): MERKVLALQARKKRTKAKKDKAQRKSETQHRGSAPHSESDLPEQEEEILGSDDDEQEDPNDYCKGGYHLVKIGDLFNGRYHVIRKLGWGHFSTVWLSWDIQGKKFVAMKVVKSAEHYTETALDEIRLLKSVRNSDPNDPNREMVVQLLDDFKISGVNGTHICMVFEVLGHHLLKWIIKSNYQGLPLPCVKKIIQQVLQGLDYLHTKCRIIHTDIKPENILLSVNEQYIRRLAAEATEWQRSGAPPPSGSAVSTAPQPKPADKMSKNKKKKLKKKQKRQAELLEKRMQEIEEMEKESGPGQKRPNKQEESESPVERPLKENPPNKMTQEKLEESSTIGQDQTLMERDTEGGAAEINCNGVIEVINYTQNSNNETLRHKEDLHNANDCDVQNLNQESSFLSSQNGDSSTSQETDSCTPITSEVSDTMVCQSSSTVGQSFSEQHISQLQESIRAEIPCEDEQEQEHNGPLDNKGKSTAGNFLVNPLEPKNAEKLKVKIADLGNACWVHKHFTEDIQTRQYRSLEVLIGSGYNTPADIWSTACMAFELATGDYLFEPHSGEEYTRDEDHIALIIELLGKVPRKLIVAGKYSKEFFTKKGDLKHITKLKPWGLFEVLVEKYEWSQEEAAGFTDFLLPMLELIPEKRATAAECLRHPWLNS
Chain of Serine/threonine-protein kinase N2 (Homo sapiens) (Q16513 whole entry, looked up): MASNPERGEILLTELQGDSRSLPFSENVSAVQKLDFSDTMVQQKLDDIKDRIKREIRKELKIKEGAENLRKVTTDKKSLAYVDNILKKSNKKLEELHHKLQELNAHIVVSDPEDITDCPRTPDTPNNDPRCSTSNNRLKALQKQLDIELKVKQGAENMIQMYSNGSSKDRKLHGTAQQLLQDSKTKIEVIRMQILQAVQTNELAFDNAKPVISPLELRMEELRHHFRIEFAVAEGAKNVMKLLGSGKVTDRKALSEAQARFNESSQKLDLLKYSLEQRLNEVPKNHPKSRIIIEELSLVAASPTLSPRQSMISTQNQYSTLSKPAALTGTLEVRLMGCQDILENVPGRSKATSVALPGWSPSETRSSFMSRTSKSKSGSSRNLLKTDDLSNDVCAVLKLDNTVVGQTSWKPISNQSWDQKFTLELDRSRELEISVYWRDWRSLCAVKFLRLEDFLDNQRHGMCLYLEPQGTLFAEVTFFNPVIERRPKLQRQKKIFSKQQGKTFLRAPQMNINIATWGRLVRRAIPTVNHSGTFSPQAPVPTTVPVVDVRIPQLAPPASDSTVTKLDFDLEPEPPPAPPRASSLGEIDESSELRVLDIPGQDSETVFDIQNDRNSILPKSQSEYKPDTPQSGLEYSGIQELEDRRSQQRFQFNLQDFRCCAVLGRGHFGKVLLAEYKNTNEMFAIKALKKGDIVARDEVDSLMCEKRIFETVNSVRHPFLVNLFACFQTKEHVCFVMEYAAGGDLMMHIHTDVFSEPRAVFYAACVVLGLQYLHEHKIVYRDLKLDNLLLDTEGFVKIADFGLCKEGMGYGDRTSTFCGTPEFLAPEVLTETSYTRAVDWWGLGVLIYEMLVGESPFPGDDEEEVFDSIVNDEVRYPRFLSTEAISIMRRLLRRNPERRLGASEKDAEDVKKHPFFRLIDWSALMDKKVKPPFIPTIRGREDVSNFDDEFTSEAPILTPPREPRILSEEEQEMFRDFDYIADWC
Chain of Serine/threonine-protein kinase Sgk1 (Homo sapiens) (O00141 whole entry): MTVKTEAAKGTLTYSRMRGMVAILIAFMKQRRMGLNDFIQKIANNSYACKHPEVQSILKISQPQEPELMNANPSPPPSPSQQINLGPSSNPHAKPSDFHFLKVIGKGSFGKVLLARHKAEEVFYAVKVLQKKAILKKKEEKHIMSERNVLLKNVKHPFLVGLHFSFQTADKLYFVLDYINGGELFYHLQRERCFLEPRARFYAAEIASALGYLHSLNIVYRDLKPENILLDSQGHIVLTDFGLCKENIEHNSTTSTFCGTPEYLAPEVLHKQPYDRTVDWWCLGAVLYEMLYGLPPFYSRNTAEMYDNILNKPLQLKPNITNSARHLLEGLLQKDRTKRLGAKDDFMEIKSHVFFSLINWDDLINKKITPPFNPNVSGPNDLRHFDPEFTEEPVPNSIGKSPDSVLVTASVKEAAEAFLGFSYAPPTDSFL
Chain of MAP kinase-interacting serine/threonine-protein kinase 2 (Homo sapiens) (Q9HBH9 whole entry, looked up): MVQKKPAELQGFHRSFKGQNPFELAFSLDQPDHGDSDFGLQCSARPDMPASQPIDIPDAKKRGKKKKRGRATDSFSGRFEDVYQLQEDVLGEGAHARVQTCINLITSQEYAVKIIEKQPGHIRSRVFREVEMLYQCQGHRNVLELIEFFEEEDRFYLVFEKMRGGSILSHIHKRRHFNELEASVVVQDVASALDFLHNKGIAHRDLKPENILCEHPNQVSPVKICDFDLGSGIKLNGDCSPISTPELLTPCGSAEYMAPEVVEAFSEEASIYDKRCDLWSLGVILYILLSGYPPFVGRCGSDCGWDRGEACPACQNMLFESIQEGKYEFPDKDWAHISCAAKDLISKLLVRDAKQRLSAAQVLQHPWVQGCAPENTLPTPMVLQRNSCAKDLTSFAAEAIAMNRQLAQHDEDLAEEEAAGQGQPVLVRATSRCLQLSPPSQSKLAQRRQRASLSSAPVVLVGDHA
Chain of Protein kinase C eta type (Homo sapiens) (P24723 whole entry): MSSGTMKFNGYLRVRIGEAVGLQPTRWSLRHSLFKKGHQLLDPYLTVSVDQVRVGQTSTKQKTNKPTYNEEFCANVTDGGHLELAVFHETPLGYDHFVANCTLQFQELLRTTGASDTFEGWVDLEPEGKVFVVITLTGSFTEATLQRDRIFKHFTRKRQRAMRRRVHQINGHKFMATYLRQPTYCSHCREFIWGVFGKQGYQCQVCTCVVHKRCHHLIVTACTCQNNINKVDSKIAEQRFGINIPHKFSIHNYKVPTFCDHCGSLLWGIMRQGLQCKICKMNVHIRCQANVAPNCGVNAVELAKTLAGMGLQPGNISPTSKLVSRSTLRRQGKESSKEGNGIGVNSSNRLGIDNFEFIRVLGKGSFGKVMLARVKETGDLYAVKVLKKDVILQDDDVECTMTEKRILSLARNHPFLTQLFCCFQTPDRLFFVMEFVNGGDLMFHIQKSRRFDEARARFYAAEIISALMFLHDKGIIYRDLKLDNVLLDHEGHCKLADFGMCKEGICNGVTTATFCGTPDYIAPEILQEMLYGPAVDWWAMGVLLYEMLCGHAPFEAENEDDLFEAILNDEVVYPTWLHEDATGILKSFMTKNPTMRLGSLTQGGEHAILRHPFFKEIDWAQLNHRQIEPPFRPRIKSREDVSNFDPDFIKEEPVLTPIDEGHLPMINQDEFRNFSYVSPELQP

C[C@@H]1CCc2ncc(F)cc2[C@H]2CCCN2c2ccn3ncc(c3n2)C(=O)N1 [SELITRECTINIB]
inhibition (MG-63): inactive
inhibition (MDA-MB-453): inactive
AUC at 696 h [1]: 4410 ng·h/mL
inhibition (UMUC3): inactive
inhibition (SCC-25): inactive
inhibition (TPC1): inactive
residual activity [2]: 124%
inhibition (CML-T1): inactive
residual activity [3]: 100%
AUC at 24 h [4]: 1190 ng·h/mL
inhibition (LC2): inactive
residual activity [5]: 110%
residual activity [6]: 95%
residual activity [7]: 93.5%
inhibition (NCI-H661): inactive
inhibition (DMS-114): inactive
residual activity [8]: 110%
residual activity [9]: 91.5%
residual activity [10]: 106%
residual activity [11]: 104%
residual activity [12]: 92.5%
residual activity [13]: 110%
residual activity [14]: 105%
residual activity [15]: 100%
inhibition (FaDu): inactive
inhibition (SAOS-2): inactive
residual activity [16]: 108%
residual activity [17]: 125%
inhibition (MZ-CRC-1): inactive
inhibition (TF-1): inactive
residual activity [18]: 102%
